Experiments:
[1] = test system: MCF7; assay: Antiproliferative activity against human MCF7 cells after 72 hrs by MTS assay; details: MCF7, 72 h
[2] = test system: A549; assay: cells; details: Homo sapiens, A549, 72 h
[3] = test system: HCT-116; assay: cells; details: Homo sapiens, HCT-116, 72 h
[4] = biological target: T1, Casein kinase II subunit alpha (Homo sapiens, UniProt P68400); assay: Inhibition of GST fused human CK2alpha expressed in Escherichia coli BL21 at 0.3 uM
[5] = biological target: Dual specificity tyrosine-phosphorylation-regulated kinase 1B (Homo sapiens) (UniProt Q9Y463); assay: Inhibition of DYRK1B at 0.3 uM
[6] = biological target: Cyclin-dependent kinase 6 (Homo sapiens) (UniProt Q00534); assay: Inhibition of CDK6 at 3 uM
[7] = biological target: RAC-alpha serine/threonine-protein kinase (Homo sapiens) (UniProt P31749); assay: Inhibition of AKT1 at 3 uM
[8] = biological target: T1, Casein kinase II subunit alpha; assay: Competitive inhibition of GST fused human CK2alpha expressed in Escherichia coli BL21 after 10 mins in presence of ATP
[9] = biological target: T2, Casein kinase II subunit alpha' (Homo sapiens, UniProt P19784); assay: Inhibition of GST fused human CK2alpha' expressed in Escherichia coli BL21 at 0.3 uM
[10] = biological target: T2, Casein kinase II subunit alpha'; assay: Competitive inhibition of GST fused human CK2alpha' expressed in Escherichia coli BL21 after 10 mins in presence of ATP
[11] = biological target: Receptor-type tyrosine-protein kinase FLT3 (Homo sapiens) (UniProt P36888); assay: Inhibition of FLT3 at 0.3 uM

SMILES | IC50 [1] [µM] | IC50 [2] [µM] | IC50 [3] [µM] | inhibition [4] [%] | inhibition [5] [%] | inhibition [6] [%] | inhibition [7] [%] | IC50 [8] [µM] | inhibition [9] [%] | IC50 [10] [µM] | inhibition [11] [%]
O=C(O)Cc1ccn(-c2cncc(-n3ncc4ccc(NC5CCCC5)cc43)n2)c1 | 75 | 36 | 24 |  |  |  |  |  |  |  | 
O=C(O)c1ccc2c(c1)nc(Nc1cccc(Cl)c1)c1ccncc12 [SILMITASERTIB] | 6.5 | 8.2 | 5.2 |  |  |  |  |  |  |  | 
COc1ccc(C(=O)Nc2ncc(-c3ccc(C(=O)O)cc3)s2)cc1 | 2.4 | 2.6 | 1.6 | 84 | 82 | 32 | 0.8 | 0.032 | > 100 | 0.046 | 76

Results, then the compound that gave them:

IC50 [1] [µM] | IC50 [2] [µM] | IC50 [3] [µM] | inhibition [4] [%] | inhibition [5] [%] | inhibition [6] [%] | inhibition [7] [%] | IC50 [8] [µM] | inhibition [9] [%] | IC50 [10] [µM] | inhibition [11] [%] | SMILES
> 30 | > 30 | > 30 |  |  |  |  |  |  |  |  | COc1ccc(C(=O)Nc2cc(-c3ccc(C(=O)O)cc3)[nH]n2)cc1
> 30 | > 30 | > 30 |  |  |  |  |  |  |  |  | COc1ccc(C(=O)Nc2nnc(-c3ccc(C(=O)O)cc3)s2)cc1
